These results are taken from article PMC12428754, “Testing Strategies for Metabolite-Mediated Neurotoxicity” (International Journal of Molecular Sciences, 2025).

The subject of assay [1] is hiPSC-derived neural crest-like cells. The experiment in a line: cMINC (UKN2) neural crest cell migration assay. The following applies: listed under the metabolite. The format is cell-based, human. As for the experimental part: (§1) Figure 6 The transfer of the metabolisation module to the neural crest cell migration assay (cMINC). (A) A schematic of the cMINC (circular migration of neural crest cells) assay. The cells were seeded around a central stopper to create a cell-free circular area. Migration was initiated 24 h after seeding by removing the stopper. This is defined as the day of migration (DoM) 0. On DoM 1, the cells were exposed to toxicants. After 24 h of exposure, both cell migration and viability were quantified, using automated high-content imaging. (B) Compatibility of the metabolisation module (preincubation with 500 µg/mL S9 at 37 °C for 2 h) with the cMINC assay: The setup was as described in Figure 4 and as exemplified in Figure 5A. No compound was added (solvent control). The S9 mixture (at 500 µg/mL ± NADPH) was added to the normal cell culture medium of the cMINC assay (so that the addition was 10% of the total volume). Data are from three independent experiments. (C,D) The concentration-dependent effects on migration were evaluated for metabolite mixtures generated from bromethalin (C) or chlorfenapyr (D). […] The arrows indicate the direction of sensitivity shift between NADPH-dependent and -independent metabolite mixtures, with accompanying fold change values. The concentrations are given as nominal concentrations of the parent compound. Abbreviations: n.s., not significant. TEXT PRINTED IN THE PICTURE: (C) Bromethalin: x30 | (D) Chlorfenapyr: x15
The MINC assay was performed as previously described. Briefly, 96-well plates were prepared by inserting a central 2 mm diameter stopper (Platypus Technologies, Madison, WI, USA) into pre-coated wells with a composite poly-L-ornithine (PLO; 10 µg/mL), fibronectin (1 µg/mL), and laminin (1 µg/mL) matrix. […] After a further 24 h (DoM 2), cell migration and viability were assessed. […] High content imaging was performed, and data were analysed using the RingAssay V1 software (http://invitrotox.uni-konstanz.de/, accessed on 3 February 2025). […]

For assay [2] the test system is unchanged. The assay is described as follows: S9 metabolisation module followed by cMINC migration assay. The class given is cell-based, human. The following applies: for EC25 migration (+NADPH): metabolite mixture generated with NADPH; for EC25 migration (+NADPH) / EC25 migration (−NADPH): nominal concentration of parent; for EC25 migration (−NADPH): metabolite mixture generated without NADPH; for fold change of potency (EC25) between NADPH-independent and -dependent metabolite mixtures: potency increased with NADPH. The protocol: as §1
The MINC assay was performed as previously described. Briefly, 96-well plates were prepared by inserting a central 2 mm diameter stopper (Platypus Technologies, Madison, WI, USA) into pre-coated wells with a composite poly-L-ornithine (PLO; 10 µg/mL), fibronectin (1 µg/mL), and laminin (1 µg/mL) matrix. Cryopreserved human induced pluripotent stem cell (hiPSC)-derived neural crest-like cells were thawed and seeded at a density of 95,000 cells/cm^2 around the stopper to create a defined, cell-free circular area. The cells were cultured in N2-S medium supplemented with […] of the cytokines EGF and FGF. After 24 h, the stoppers were removed and the medium refreshed to initiate cell migration into the cell-free centre (defined as the day of migration, DoM 0). On DoM 1, the cells were exposed to test compounds by the addition of a 5× concentrated toxicant solution. After a further 24 h (DoM 2), cell migration and viability were assessed. The cells were stained with 0.5 µM calcein-AM and 1 µg/mL Hoechst 33342 (both from Sigma-Aldrich, Steinheim, Germany). High content imaging was performed, and data were analysed using the RingAssay V1 software (http://invitrotox.uni-konstanz.de/, accessed on 3 February 2025).
In the first step, matched technical replicates were averaged. […] For visualisation, GraphPad Prism 9 was used.
The supernatant was used further.

Regarding `O=C(c1ccccc1)c1ccc(O)cc1` [4-Hydroxybenzophenone], the “increase in potency of metabolite compared to parent (BMC25 ratio)” value in assay [1] was “over three”.

Turning to `CN(c1c(Br)cc(Br)cc1Br)c1c([N+](=O)[O-])cc([N+](=O)[O-])cc1C(F)(F)F` [Bromethalin], in assay [2], the “EC25 migration (+NADPH)” value is 26 nM; the “EC25 migration (−NADPH)” value was determined as 0.79 µM; the “fold change of potency (EC25) between NADPH-independent and -dependent metabolite mixtures” value is “about 30 fold”.

Take `CCOCn1c(-c2ccc(Cl)cc2)c(C#N)c(Br)c1C(F)(F)F` [Chlorfenapyr]: in assay [2], the “EC25 migration (+NADPH)” value came to 600 nM; the “EC25 migration (−NADPH)” value came to 9 µM; the “fold change of potency (EC25) between NADPH-independent and -dependent metabolite mixtures” value was found to be 15 fold.

As to `N#Cc1c(-c2ccc(Cl)cc2)[nH]c(C(F)(F)F)c1Br` [Tralopyril], the “increase in potency of metabolite compared to parent (BMC25 ratio)” value in assay [1] amounted to 28 fold.
